Measured values: US20260216193A1, “TREATMENT OF HAND ECZEMA” (LEO Pharma A/S, priority 2016, published 2026)
Entries after “also recorded” stand apart in the source; their conditions may differ.

Tested on: subjects with chronic hand eczema
Assay: phase 2a clinical trial, twice daily topical ointment 30 mg/g vs ointment vehicle for 8 weeks
Format: in vivo, human
Procedure: The invention provides a clinical trial to compare efficacy of twice daily topical ointment with 30 mg/g of the compound of formula (I), with an ointment vehicle for 8 weeks in the treatment of hand eczema. The compound of formula (I) is formulated in an ointment containing the active compound in 30 mg/g, white soft paraffin, hard paraffin and squalane. Dosis range will be a thin layer covering the affected areas on the hands corresponding to 1.7 mg/cm^2 of the compound of formula (I). The primary efficacy parameter for ‘treatment success’ is Physician's Global Assessment of disease severity (PGA). […] Patient's Global Assessment of disease severity (PaGA) was recorded at the same visits. • 1. […] In overall good health including well controlled diseases (e.g. hypertension, diabetes and thyroid disease) as determined by medical history, physical examination, electrocardiogram (ECG), vital signs (blood pressure, heart rate and body temperature) and clinical laboratory evaluation. […]

C[C@H]1CN(C(=O)CC#N)[C@]12CCN(c1ncnc3[nH]ccc13)C2 [compound of formula (I), 3-[(3S,4R)-3-methyl-6-(7H-pyrrolo[2,3-d]pyrimidin-4-yl)-1,6-diazaspiro[3.4]octan-1-yl]-3-oxopropanenitrile]
“treatment success” according to Physician's Global Assessment of disease severity (PGA) (ointment 30 mg/g twice daily topical vs ointment vehicle, up to 8 weeks, prespecified analysis at week 8, subjects with chronic hand eczema): resulted in “treatment success”; also recorded: statistically significant (P=0.009) difference in favor
safety and tolerability (ointment 30 mg/g, twice daily topical, patients with hand eczema): safe and well tolerated
